In the assay the test system is B6C3F1 mice, intracerebral ependymoblastoma, median survival T/C. The assay can be described thus: NCI In Vivo Anticancer Drug Screen. Data for tumor model Ependymoblastoma (intracerebral) in B6C3F1 mice. As to conditions: endpoint: median survival time, higher = longer survival. The procedure:
The antitumor activity of compounds was measured in mice bearing transplantable tumors. Survival or tumor size were measured and the results are expressed as the measurement made in the treated group (T) divided by the measurement made in the vehicle treated control group (C). The tumor model used in this assay is Ependymoblastoma (intracerebral) in B6C3F1 mice

The mark [1] stands for this setting: dose: 32.0 mg/kg/injection, schedule: Q01DX005 (ip), vehicle: saline.
The mark [2] stands for this setting: dose: 64.0 mg/kg/injection, schedule: Q01DX005 (ip), vehicle: saline.
Where [3] appears, read: dose: 128.0 mg/kg/injection, schedule: Q01DX005 (ip), vehicle: saline.
Setting [4] is: dose: 256.0 mg/kg/injection, schedule: Q01DX005 (ip), vehicle: saline.

“And” between values parts separate entries of the source, which are not always exact repeats. Identical values can stand only once. Inconclusive results and toxic doses are left out.

`Cc1cc2nc3ccc(N)cc3oc-2cc1=[N+](C)C`: the T/C was 106 % of control (dose: 6.25 mg/kg/injection, schedule: Q01DX005 (ip), vehicle: saline); 105 % of control (dose: 12.5 mg/kg/injection, schedule: Q01DX005 (ip), vehicle: saline); 102 % of control (dose: 25.0 mg/kg/injection, schedule: Q01DX005 (ip), vehicle: saline); 91 % of control (dose: 50.0 mg/kg/injection, schedule: Q01DX005 (ip), vehicle: saline).
Regarding `CN1C(=O)CC(c2ccc(NC(=O)N(CCCl)N=O)cc2)C1=O` (centres undefined), the T/C reads like this: (dose: 0.75 mg/kg/injection, schedule: Q01DX005 (ip), vehicle: distilled water + Tween-80) 119 % of control; (dose: 1.5 mg/kg/injection, schedule: Q01DX005 (ip), vehicle: distilled water + Tween-80) 180 % of control; (dose: 6.0 mg/kg/injection, schedule: Q01DX005 (ip), vehicle: distilled water + Tween-80) 210 % of control; (dose: 12.0 mg/kg/injection, schedule: Q01DX005 (ip), vehicle: distilled water + Tween-80) 240 % of control.
With `CCCCCCCC(=O)O[C@H]1[C@H]2[C@@H](CC1(C)C)C(=O)[C@]13O[C@H]1C(=O)[C@]1(CO1)[C@]23C`, the T/C was 107 % of control (dose: 0.62 mg/kg/injection, schedule: Q01DX005 (ip), vehicle: Klucel (hydroxypropylcellulose) (HPC)); 106 % of control (dose: 1.25 mg/kg/injection, schedule: Q01DX005 (ip), vehicle: Klucel (hydroxypropylcellulose) (HPC)); 111 % of control (dose: 2.5 mg/kg/injection, schedule: Q01DX005 (ip), vehicle: Klucel (hydroxypropylcellulose) (HPC)); 110 % of control (dose: 5.0 mg/kg/injection, schedule: Q01DX005 (ip), vehicle: Klucel (hydroxypropylcellulose) (HPC)); 102 % of control (dose: 10.0 mg/kg/injection, schedule: Q01DX005 (ip), vehicle: Klucel (hydroxypropylcellulose) (HPC)); 101 % of control (dose: 20.0 mg/kg/injection, schedule: Q01DX005 (ip), vehicle: Klucel (hydroxypropylcellulose) (HPC)).
`CN(CCO)/N=N/c1nc[nH]c1C(N)=O`: the T/C reads like this: under setting [1], 116 % of control; under setting [2], 109 % of control and 112 % of control; under setting [3], 114 % of control; under setting [4], 124 % of control.
With `O=C(N/N=C\c1cc(Br)cc(Br)c1O)N/N=C/c1cc(Br)cc(Br)c1O`, the T/C is, setting by setting: (dose: 32.0 mg/kg/injection, schedule: Q01DX005 (ip), vehicle: saline with Tween-80) 109 % of control; (dose: 64.0 mg/kg/injection, schedule: Q01DX005 (ip), vehicle: saline with Tween-80) 106 % of control; (dose: 128.0 mg/kg/injection, schedule: Q01DX005 (ip), vehicle: saline with Tween-80) 105 % of control; (dose: 256.0 mg/kg/injection, schedule: Q01DX005 (ip), vehicle: saline with Tween-80) 106 % of control; (dose: 512.0 mg/kg/injection, schedule: Q01DX005 (ip), vehicle: saline with Tween-80) 99 % of control.
In the case of `CC[C@H]1CN2CCc3cc(OC)c(OC)cc3[C@@H]2C[C@@H]1C[C@H]1NCCc2cc(OC)c(OC)cc21`, the T/C is, setting by setting: (dose: 2.0 mg/kg/injection, schedule: Q01DX005 (ip), vehicle: Klucel (hydroxypropylcellulose) (HPC)) 100 % of control and 104 % of control; (dose: 4.0 mg/kg/injection, schedule: Q01DX005 (ip), vehicle: Klucel (hydroxypropylcellulose) (HPC)) 99 % of control and 105 % of control; (dose: 8.0 mg/kg/injection, schedule: Q01DX005 (ip), vehicle: Klucel (hydroxypropylcellulose) (HPC)) 105 % of control and 117 % of control.
As for `COC(=O)c1ccc(N=NN(C)C)cc1`, the T/C (dose: 8.0 mg/kg/injection, schedule: Q01DX005 (ip), vehicle: saline + alcohol) is 114 % of control; the T/C (dose: 16.0 mg/kg/injection, schedule: Q01DX005 (ip), vehicle: saline + alcohol) is 114 % of control; the T/C (dose: 128.0 mg/kg/injection, schedule: Q01DX005 (ip), vehicle: saline + alcohol) is 160 % of control and 164 % of control; the T/C (dose: 256.0 mg/kg/injection, schedule: Q01DX005 (ip), vehicle: saline + alcohol) was 100 % of control.
Consider `CCCN(C)/N=N/c1nc[nH]c1C(N)=O`, for which the T/C was 112 % of control (dose: 4.0 mg/kg/injection, schedule: Q01DX005 (ip), vehicle: saline with Tween-80) and 124 % of control (dose: 8.0 mg/kg/injection, schedule: Q01DX005 (ip), vehicle: saline with Tween-80).
On to `COc1cc2c(cc1O)N=C[C@@H]1CCC(O)N1C2=O` (mixture of isomers), for which the T/C is, setting by setting: (dose: 2.0 mg/kg/injection, schedule: Q01DX005 (ip), vehicle: distilled water + Tween-80) 95 % of control; (dose: 4.0 mg/kg/injection, schedule: Q01DX005 (ip), vehicle: distilled water + Tween-80) 92 % of control; (dose: 8.0 mg/kg/injection, schedule: Q01DX005 (ip), vehicle: distilled water + Tween-80) 87 % of control.
As for `O=C(O)CC(NC(=O)CP(=O)(O)O)C(=O)O` (centres undefined), the T/C (dose: 1.0 mg/kg/injection, schedule: Q01DX005 (ip), vehicle: saline) is 117 % of control; the T/C (dose: 2.0 mg/kg/injection, schedule: Q01DX005 (ip), vehicle: saline) is 104 % of control; the T/C (dose: 4.0 mg/kg/injection, schedule: Q01DX005 (ip), vehicle: saline) is 108 % of control; the T/C (dose: 8.0 mg/kg/injection, schedule: Q01DX005 (ip), vehicle: saline) is 104 % of control; the T/C (dose: 16.0 mg/kg/injection, schedule: Q01DX005 (ip), vehicle: saline) was 107 % of control; the T/C (dose: 27.0 mg/kg/injection, schedule: Q#ADX018 (ip), vehicle: saline) was 99 % of control. For the same molecule, the T/C under setting [1] was 101 % of control and 111 % of control; the T/C (dose: 32.0 mg/kg/injection, schedule: Q04DX003 (ip), vehicle: saline) is 96 % of control; the T/C (dose: 45.0 mg/kg/injection, schedule: Q01DX009 (ip), vehicle: saline with Tween-80) was 90 % of control; the T/C (dose: 45.0 mg/kg/injection, schedule: Q12HX010 (ip), vehicle: saline) was 103 % of control; the T/C (dose: 45.0 mg/kg/injection, schedule: Q#A X010 (ip), vehicle: saline) is 180 % of control; the T/C (dose: 45.0 mg/kg/injection, schedule: Q#ADX018 (ip), vehicle: saline) is 102 % of control. For the same molecule, the T/C reads like this: under setting [2], 104 % of control and 114 % of control; (dose: 64.0 mg/kg/injection, schedule: Q04DX003 (ip), vehicle: saline) 109 % of control; (dose: 90.0 mg/kg/injection, schedule: Q01DX005 (ip), vehicle: saline) 95 % of control and 100 % of control; (dose: 90.0 mg/kg/injection, schedule: Q01DX009 (ip), vehicle: saline with Tween-80) 109 % of control; (dose: 90.0 mg/kg/injection, schedule: Q#A X010 (ip), vehicle: saline) 187 % of control; (dose: 90.0 mg/kg/injection, schedule: Q#ADX018 (ip), vehicle: saline) 95 % of control. The T/C (dose: 100.0 mg/kg/injection, schedule: Q12HX010 (ip), vehicle: saline) was 109 % of control; the T/C under setting [3] is 101 % of control and 117 % of control; the T/C (dose: 128.0 mg/kg/injection, schedule: Q04DX003 (ip), vehicle: saline) was 105 % of control; the T/C (dose: 180.0 mg/kg/injection, schedule: Q01DX005 (ip), vehicle: saline) is 106 % of control and 110 % of control; the T/C (dose: 180.0 mg/kg/injection, schedule: Q12HX010 (ip), vehicle: saline) was 107 % of control; the T/C (dose: 180.0 mg/kg/injection, schedule: Q#A X010 (ip), vehicle: saline) was 172 % of control. For the same molecule, the T/C was 110 % of control under setting [4] and 114 % of control (dose: 256.0 mg/kg/injection, schedule: Q04DX003 (ip), vehicle: saline).
Take `Nc1nc(=S)c2ncn(C3OC(COC(=O)c4ccccc4)C(OC(=O)c4ccccc4)C3OC(=O)c3ccccc3)c2[nH]1` (centres undefined): the T/C is 100 % of control (dose: 12.5 mg/kg/injection, schedule: Q01DX005 (ip), vehicle: saline with Tween-80); 100 % of control (dose: 25.0 mg/kg/injection, schedule: Q01DX005 (ip), vehicle: saline with Tween-80); 105 % of control (dose: 50.0 mg/kg/injection, schedule: Q01DX005 (ip), vehicle: saline with Tween-80).
As for `CC(=O)Nc1ccc(/C=N/NC(N)=S)cc1`, the T/C is, setting by setting: (dose: 50.0 mg/kg/injection, schedule: Q01DX005 (ip), vehicle: Klucel (hydroxypropylcellulose) (HPC)) 93 % of control; (dose: 100.0 mg/kg/injection, schedule: Q01DX005 (ip), vehicle: Klucel (hydroxypropylcellulose) (HPC)) 91 % of control; (dose: 200.0 mg/kg/injection, schedule: Q01DX005 (ip), vehicle: Klucel (hydroxypropylcellulose) (HPC)) 90 % of control; (dose: 400.0 mg/kg/injection, schedule: Q01DX005 (ip), vehicle: Klucel (hydroxypropylcellulose) (HPC)) 91 % of control; (dose: 800.0 mg/kg/injection, schedule: Q01DX005 (ip), vehicle: Klucel (hydroxypropylcellulose) (HPC)) 112 % of control.
